Results from patent publication US20230219892A1, “FORMS AND COMPOSITIONS OF A BETA ADRENERGIC AGONIST” (Curasen Therapeutics, Inc., priority 2020, published 2023).
Values after ≈ are worked out from the molar mass of the structure shown. Where two headings read alike, the source gives them in different places.

Experiments:
[1] = Solubility testing in biorelevant media (SGF, FaSSIF, FeSSIF) and water, shaken at 37° C. for up to 24 hours; assay type: physicochemical; details: for Solubility (mg/mL) 0.5 h / solubility / solubility at 0.5 h: 37° C.; for solubility / solubility at 0.5 h: 37 °C, thermodynamic from solid; for time until dissolved in each medium: shaking at 37° C., about 15 mg in 3 mL of each of the 4 media; for solubility at 0.5 h: read-out: Solubility (mg/mL) 0.5 h
Experimental: (§1) HPLC analysis was performed with an Agilent HPLC 1260 series instrument.
Compound 1 Form A, Compound 2 Form A and Compound 9 Form A were tested for stability in three biorelevant media and water at 37° C. for 0.5, 2 and 24 hours. About 15 mg of Compound 1 Form A, Compound 2 Form A and Compound 9 Form A were weighted into four separate vials each and to each set of vials was added 3 mL of one of the following biorelevant media: simulated gastric […] fluid (SGF), fasted state simulated intestinal fluid (FaSSIF), fed state simulated intestinal fluid (FeSSIF), and water. All samples were shaken at 200 rpm at 37° C. for up to 24 hours. […] Compound 9 Form A dissolved in each medium after about 15 minutes of shaking at 37° C. Compound 1 Form A dissolved in each medium over the course of about 2 hours of shaking at 37° C. […] The results of the solubility test are summarized below in Table 18: […]

[2] = Estimated solubility test: medium added stepwise at rt until the solid dissolved; assay type: physicochemical; details: for solubility: thermodynamic from solid
Experimental: As all of the samples dissolved after about 2 hours, estimated solubility testing was conducted, wherein about 5 mg of Compound 1 Form A, Compound 2 Form A and Compound 9 Form A were weighed into four separate vials each and each media was added stepwise while stirring at rt until the solid dissolved.

[3] = Solid stability at 60° C. and 40° C./75%RH for 7 days (purity by HPLC, solid form); assay type: physicochemical; details: for Purity @ 0 d (Area%): start of solid stability test; for Purity @ 0 d (Area%) / Purity @ 7 d (Area%) 40° C./75%RH / Purity @ 7 d (Area%) 60° C.: HPLC; for Solid form @ 7 d 40° C./75%RH / Purity @ 7 d (Area%) 40° C./75%RH: 7 d at 40° C./75%RH; for Solid form @ 7 d 60° C. / Purity @ 7 d (Area%) 60° C.: 7 d at 60° C.
Experimental: as §1
Solid stability of Compound 1 Form A, Compound 2 Form A and Compound 9 Form A were evaluated at 60° C. and 40° C./75%RH for 7 days. Purity was determined via HPLC. […] All tested compounds retained the same solid form after the 7-day experiment.

[4] = molecular target: β2 adrenergic receptor (Homo sapiens, UniProt P07550); experiment: Agonism of the β2 adrenergic receptor (statement, no method given)
Sequence of β2 adrenergic receptor (P07550 whole entry): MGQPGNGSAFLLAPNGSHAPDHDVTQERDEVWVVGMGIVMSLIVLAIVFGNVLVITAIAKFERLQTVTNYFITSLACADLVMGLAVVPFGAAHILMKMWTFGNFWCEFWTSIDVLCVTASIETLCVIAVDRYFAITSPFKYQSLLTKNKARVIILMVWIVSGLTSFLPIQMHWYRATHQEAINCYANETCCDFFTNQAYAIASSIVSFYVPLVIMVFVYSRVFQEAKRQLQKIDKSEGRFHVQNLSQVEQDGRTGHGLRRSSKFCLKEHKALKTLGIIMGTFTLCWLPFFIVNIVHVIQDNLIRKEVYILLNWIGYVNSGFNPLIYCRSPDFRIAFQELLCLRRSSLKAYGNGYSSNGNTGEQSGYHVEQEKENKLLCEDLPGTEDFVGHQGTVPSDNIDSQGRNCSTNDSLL

[5] = Blood-brain barrier crossing and accumulation in cerebral spinal fluid (statement, no method given)
[6] = Dynamic vapor sorption (DVS) moisture sorption/desorption; assay type: physicochemical; details: for XRPD pattern after DVS testing: after DVS full cycle
Experimental: Moisture sorption/desorption data was collected on a DVS Intrinsic (SMS, UK). The sample was placed into a tared sample chamber and automatically weighed. The sample was dried at 40° C. until the dm/dt was less than 0.002% and cooled to 25° C. The instrument parameters were set as detailed below. Step time (min): 60 min; Sample temperature: 25° C.; Cycle: Full cycle; Adsorption: 0, 10, 20, 30, 40, 50, 60, 70, 80, 90; Desorption: 80, 70, 60, 50, 40, 30, 20, 10, 0; Save Data Rate: 5 s; Total flow rate: 200 sccm; Post experiment total flow: 200 sccm.

[7] = SGF, FaSSIF, FeSSIF and water, SGF, FaSSIF, FeSSIF and water, about 15 mg in 3 mL, read-out: solubility in each medium
[8] = FaSSIF, fassif, FaSSIF, shaken 200 rpm, 2 and 24 h, read-out: Solubility (mg/mL) 2 and 24 h
[9] = FaSSIF, fassif, FaSSIF, shaken 200 rpm
[10] = FeSSIF, fessif, FeSSIF, shaken 200 rpm, 2 and 24 h, read-out: Solubility (mg/mL) 2 and 24 h
[11] = FeSSIF, fessif, FeSSIF, shaken 200 rpm
[12] = SGF, simulated gastric fluid, SGF, shaken 200 rpm, 2 and 24 h, read-out: Solubility (mg/mL) 2 and 24 h
[13] = SGF, simulated gastric fluid, SGF, shaken 200 rpm
[14] = water, water, Water, shaken 200 rpm, 2 and 24 h, read-out: Solubility (mg/mL) 2 and 24 h
[15] = water, water, Water, shaken 200 rpm

Compound: CC(C)(C)NC[C@H](O)c1cccc(C#N)n1 [Compound 1, (S)-6-(2-(tert-butylamino)-1-hydroxyethyl)picolinonitrile]
- Solubility (mg/mL) 0.5 h ([1]; FaSSIF, shaken 200 rpm, listed as Compound 1 Form A): 4.33 mg/mL (≈ 19.7 mM)
- Solubility (mg/mL) 0.5 h ([1]; FeSSIF, shaken 200 rpm, listed as Compound 1 Form A): 4.41 mg/mL (≈ 20.1 mM)
- Solubility (mg/mL) 0.5 h ([1]; SGF, shaken 200 rpm, listed as Compound 1 Form A): 4.76 mg/mL (≈ 21.7 mM)
- solubility [1, 7]: > 5 mg/mL
- Solubility (mg/mL) 0.5 h ([1]; Water, shaken 200 rpm, listed as Compound 1 Form A): 4.19 mg/mL (≈ 19.1 mM)
- pH 24 h ([1]; pH of solubility sample in FaSSIF at 24 h (control 6.53), listed as Compound 1 Form A): 8.03
- pH 24 h ([1]; pH of solubility sample in FeSSIF at 24 h (control 5.01), listed as Compound 1 Form A): 5.52
- pH 24 h ([1]; pH of solubility sample in SGF at 24 h (control 1.19), listed as Compound 1 Form A): 1.20
- pH 24 h ([1]; pH of solubility sample in water at 24 h (control 5.26), listed as Compound 1 Form A): 10.35
- time until dissolved in each medium ([1]; listed as Compound 1 Form A): about 2 hours
- Solubility (mg/mL) FaSSIF ([2]; FaSSIF, listed as Compound 1 Form A): ~6.3 mg/mL (≈ 28.7 mM)
- Solubility (mg/mL) FeSSIF ([2]; FeSSIF, listed as Compound 1 Form A): ~9.1 mg/mL (≈ 41.5 mM)
- Solubility (mg/mL) SGF ([2]; SGF, listed as Compound 1 Form A): ~12.7 mg/mL (≈ 57.9 mM)
- Solubility (mg/mL) Water ([2]; water, listed as Compound 1 Form A): ~5.0 mg/mL (≈ 22.8 mM)
- Purity @ 0 d (Area%) ([3]; listed as Compound 1 Form A): 96.09% Area%
- decrease in purity ([3]; 7 d, under both sets of conditions (60° C. and 40° C./75%RH)): ~ 0.3%
- Solid form @ 7 d 40° C./75%RH [3]: unchanged
- Purity @ 7 d (Area%) 40° C./75%RH ([3]; listed as Compound 1 Form A): 95.78% Area%
- Solid form @ 7 d 60° C. [3]: unchanged
- Purity @ 7 d (Area%) 60° C. ([3]; listed as Compound 1 Form A): 95.76% Area%
- activity at the β2 adrenergic receptor [4]: low concentration partial agonist
- ability to cross the blood-brain barrier and accumulate in the cerebral spinal fluid [5]: unexpectedly high ability to cross the blood-brain barrier

Compound: CC(C)(C)NC[C@H](O)c1cccc(C#N)n1.Cl [Compound 2]
- solubility [1, 8]: > 5 mg/mL
- solubility at 0.5 h [1, 9]: > 5 mg/mL
- solubility [1, 10]: > 5 mg/mL
- solubility at 0.5 h [1, 11]: > 5 mg/mL
- solubility [1, 12]: > 5 mg/mL
- solubility at 0.5 h [1, 13]: > 5 mg/mL
- solubility [1, 7]: > 5 mg/mL
- dissolution in each of the 4 media ([1]; at rt, about 15 mg in 3 mL): dissolved immediately
- pH 24 h ([1]; pH of solubility sample in FaSSIF at 24 h (control 6.53)): 6.47
- pH 24 h ([1]; pH of solubility sample in FeSSIF at 24 h (control 5.01)): 5.01
- pH 24 h ([1]; pH of solubility sample in SGF at 24 h (control 1.19)): 1.11
- pH 24 h ([1]; pH of solubility sample in water at 24 h (control 5.26)): 5.24
- solubility [1, 14]: > 5 mg/mL
- solubility at 0.5 h [1, 15]: > 5 mg/mL
- solubility ([2]; FaSSIF, FaSSIF, read-out: Solubility (mg/mL) FaSSIF): > 100 mg/mL
- solubility ([2]; FeSSIF, FeSSIF, read-out: Solubility (mg/mL) FeSSIF): > 100 mg/mL
- solubility ([2]; SGF, simulated gastric fluid, SGF, read-out: Solubility (mg/mL) SGF): > 101 mg/mL
- solubility ([2]; water, water, read-out: Solubility (mg/mL) Water): > 102 mg/mL
- Purity @ 0 d (Area%) [3]: 99.27% Area%
- Solid form @ 7 d 40° C./75%RH [3]: unchanged
- Purity @ 7 d (Area%) 40° C./75%RH [3]: 99.27% Area%
- Solid form @ 7 d 60° C. [3]: unchanged
- Purity @ 7 d (Area%) 60° C. [3]: 99.25% Area%
- water uptake at 80%RH ([6]; DVS, 25° C.): 0.58%
- XRPD pattern after DVS testing [6]: remained unchanged

Compound: CC(C)(C)NC[C@H](O)c1cccc(C#N)n1.Cc1ccc(S(=O)(=O)O)cc1 [Compound 5]
- water uptake at 80%RH ([6]; DVS, 25° C.): 1.25%
- water uptake at 90%RH ([6]; DVS, 25° C., 90%RH): 2.77%
- XRPD pattern after DVS testing [6]: remained unchanged

Compound: CC(C)(C)NC[C@H](O)c1cccc(C#N)n1 [Compound 9]
- solubility [1, 8]: > 5 mg/mL
- solubility at 0.5 h [1, 9]: > 5 mg/mL
- solubility [1, 10]: > 5 mg/mL
- solubility at 0.5 h [1, 11]: > 5 mg/mL
- solubility [1, 12]: > 5 mg/mL
- solubility at 0.5 h [1, 13]: > 5 mg/mL
- pH 24 h ([1]; pH of solubility sample in FaSSIF at 24 h (control 6.53), listed as Compound 9 Form A): 6.51
- pH 24 h ([1]; pH of solubility sample in FeSSIF at 24 h (control 5.01), listed as Compound 9 Form A): 5.01
- pH 24 h ([1]; pH of solubility sample in SGF at 24 h (control 1.19), listed as Compound 9 Form A): 1.18
- pH 24 h ([1]; pH of solubility sample in water at 24 h (control 5.26), listed as Compound 9 Form A): 5.68
- time until dissolved in each medium ([1]; listed as Compound 9 Form A): About 15 minutes
- solubility [1, 14]: > 5 mg/mL
- solubility at 0.5 h [1, 15]: > 5 mg/mL
- Solubility (mg/mL) FaSSIF ([2]; FaSSIF, listed as Compound 9 Form A): >71.4 mg/mL
- Solubility (mg/mL) FeSSIF ([2]; FeSSIF, listed as Compound 9 Form A): >101.4 mg/mL
- Solubility (mg/mL) SGF ([2]; SGF, listed as Compound 9 Form A): >71.4 mg/mL
- Solubility (mg/mL) Water ([2]; water, listed as Compound 9 Form A): >71.3 mg/mL
- Purity @ 0 d (Area%) ([3]; listed as Compound 9 Form A): 98.62% Area%
- Purity @ 7 d (Area%) 40° C./75%RH ([3]; listed as Compound 9 Form A): 98.49% Area%
- Purity @ 7 d (Area%) 60° C. ([3]; listed as Compound 9 Form A): 98.62% Area%
- water uptake at 80%RH ([6]; DVS, 25° C.): 1.05%
- XRPD pattern after DVS testing [6]: remained unchanged
